Data as given in patent publication US20030104965A1, “Laundry sanitizer containing partially halogenated hydantoins” (Lonza Inc., priority 2001, published 2003).

Experiments:
[1] = test system: K. pneumoniae; experiment: Petrocci & Clarke antimicrobial laundry additive test, cotton fabric, Tide powder plus sanitizer; type: cell-based; conditions: 30 ppm sanitizer (expressed as Cl2), mixture with Tide powder; for Percent Reduction of K. pneumonia on Fabric: cotton fabric
Protocol: Bioefficacy studies were performed using cotton fabric samples to compare monochloro dimethyl hydantoin (MCDMH) to trichloroisocyanuric acid (TCCA) and sodium dichloroisocyanurate (DCCA), two chlorine bleaches. Mixtures of Tide® powder, available from Procter and Gamble of Cincinnati, Ohio, and the sanitizers specified in Table 1 were prepared and thereafter dissolved in water. The sanitizers were completely dissolved in the water before testing. The mixtures were tested according to the known Petrocci & Clarke method (A. Petrocci and P. Clarke, Proposed Test Method for Antimicrobial Laundry Additives, Journal of the Association of Official Analytical Chemists, 52(4), 836-842 (1969)) against K. pneumoniae. The percent reduction of K. pneumonia on the fabric and on the wash water was determined.

[2] = test system: Klebsiella pneumoniae ATCC 4352; experiment: Simulated in-use laundry sanitation test (Petrocci and Clarke); type: cell-based; conditions: pH 7.0, Example 6
Protocol: A simulated “in-use” laundry sanitation test, as described in Petrocci and Clarke, supra, was conducted to evaluate the activity of the samples listed in Table 3 below.
The test was performed as follows. Fabric swatches were inoculated and dried with ˜20,000,000 cfu test organism. (Staphylococcus aureus ATCC 6538, Klebsiella pneumoniae ATCC 4352). The swatches were exposed to a sample dilution for 10 minutes followed by neutralization and enumeration of survivors. The percent reduction of bacteria was calculated for the fabric swatches and wash water.
The sample dilutions were prepared as follows. Tide® powder and MCDMH were dissolved separately in water and mixed together. Then the mixture was adjusted to 150 ppm hard water. The Tide® powder mixture contained about 1.8 g of Tide® powder per liter of mixture.
The procedure in Example 5 was repeated with Klebsiella pneumonia ATCC 4352 only. The Tide® liquid sample was prepared by the same procedure as the Tide® powder sample described in Example 5. The Tide® liquid mixture contained about 1.8 g of Tide® liquid per liter of mixture.

Row | Compound | Percent Reduction of K. pneumonia in Wash Water [1] | Percent Reduction of K. pneumonia on Fabric [1] | % Reduction in 10 Minutes - Kiebsiella Fabric ([2]; 5 ppm (expressed as Cl2)) | % Reduction in 10 Minutes - Kiebsiella Water ([2]; 5 ppm (expressed as Cl2)) | % Reduction in 10 Minutes - Kiebsiella Fabric ([2]; 10 ppm (expressed as Cl2)) | % Reduction in 10 Minutes - Kiebsiella Water ([2]; 10 ppm (expressed as Cl2)) | % Reduction in 10 Minutes - Kiebsiella Fabric ([2]; 20 ppm (expressed as Cl2)) | % Reduction in 10 Minutes - Kiebsiella Water ([2]; 20 ppm (expressed as Cl2))
1 | O=c1nc([O-])n(Cl)c(=O)n1Cl.[Na+] [DCCA, sodium dichloroisocyanurate] | 87.50% | 96.36% |  |  |  |  |  | 
2 | O=c1n(Cl)c(=O)n(Cl)c(=O)n1Cl [TCCA, trichloroisocyanuric acid] | 96.38% | 97.09% |  |  |  |  |  | 
3 | monochloro-5,5-dimethyl hydantoin [MCDMH] | 99.76% | 99.60% | 99.99% | 100% | 100% | 100% | 100% | 100%
